# Test system: MV-4-11 cells
# Assay: Gene expression microarray analysis (Affymetrix PrimeView) and GSEA
# Type: cell-based, human
# Design: RFU PODN (11730768_x_at) / Fold change /veh PODN (11730768_x_at) / RFU LINC00158 (11744669_a_at) / Fold change /veh LINC00158 (11744669_a_at) / RFU DUSP10 (11751237_a_at) / Fold change /veh DUSP10 (11751237_a_at) / RFU ID3 (11757404_x_at) / Fold change /veh ID3 (11757404_x_at) / RFU PLEKHG5 (11737974_s_at) / Fold change /veh PLEKHG5 (11737974_s_at) / RFU LRRC4B (11730491_at) / Fold change /veh LRRC4B (11730491_at) / RFU GIMAP4 (11747438_a_at) / Fold change /veh GIMAP4 (11747438_a_at) / RFU KRT8 (11758183_x_at) / Fold change /veh KRT8 (11758183_x_at) / RFU CNN1 (11734310_a_at) / Fold change /veh CNN1 (11734310_a_at) / RFU VPS37D (11726825_at) / Fold change /veh VPS37D (11726825_at) / RFU C10orf10 (11716522_x_at) / Fold change /veh C10orf10 (11716522_x_at) / RFU KIR2DL2 /// KIR2DL4 /// KIR2DL5A /// KIR2DL5B /// KIR2DS1 /// KIR2DS2 /// KIR2DS3 /// KIR2DS4 /// KIR3DL3 /// KIR3DL3 /// KIR3DS1 (11738374_at) / Fold change /veh KIR2DL2 /// KIR2DL4 /// KIR2DL5A /// KIR2DL5B /// KIR2DS1 /// KIR2DS2 /// KIR2DS3 /// KIR2DS4 /// KIR3DL3 /// KIR3DL3 /// KIR3DS1 (11738374_at) / RFU C1QL1 (11718748_at) / Fold change /veh C1QL1 (11718748_at) / RFU TMPRSS4 (11747572_a_at) / Fold change /veh TMPRSS4 (11747572_a_at) / RFU HAMP (11756126_x_at) / Fold change /veh HAMP (11756126_x_at) / RFU RNFT2 (11725882_a_at) / Fold change /veh RNFT2 (11725882_a_at) / RFU NR4A2 (11747474_a_at) / Fold change /veh NR4A2 (11747474_a_at) / RFU ABCC12 (11746883_a_at) / Fold change /veh ABCC12 (11746883_a_at) / RFU TMEM136 (11760407_x_at) / Fold change /veh TMEM136 (11760407_x_at) / RFU CLDN22 /// WWC2 (11732394_at) / Fold change /veh CLDN22 /// WWC2 (11732394_at) / RFU HLA-DPB1 (11760878_x_at) / Fold change /veh HLA-DPB1 (11760878_x_at) / RFU SPINT1 (11716480_a_at) / Fold change /veh SPINT1 (11716480_a_at) / RFU GAP43 (11754022_s_at) / Fold change /veh GAP43 (11754022_s_at) / RFU A4GNT (11735810_at) / Fold change /veh A4GNT (11735810_at) / RFU PRB3 (11715151_x_at) / Fold change /veh PRB3 (11715151_x_at) / RFU TUBB4B (11761932_at) / Fold change /veh TUBB4B (11761932_at) / RFU CAPN14 (11732068_a_at) / Fold change /veh CAPN14 (11732068_a_at) / RFU TMCC2 (11721928_a_at) / Fold change /veh TMCC2 (11721928_a_at) / RFU IRGQ (11745062_a_at) / Fold change /veh IRGQ (11745062_a_at) / RFU FAM174B (11720279_a_at) / Fold change /veh FAM174B (11720279_a_at) / RFU TMPRSS4 (11748680_a_at) / Fold change /veh TMPRSS4 (11748680_a_at) / RFU FAM212B (11763350_a_at) / Fold change /veh FAM212B (11763350_a_at) / RFU PLEKHG5 (11743358_a_at) / Fold change /veh PLEKHG5 (11743358_a_at) / RFU ZSCAN30 (11745921_a_at) / Fold change /veh ZSCAN30 (11745921_a_at) / RFU CMKLR1 (11741424_a_at) / Fold change /veh CMKLR1 (11741424_a_at) / RFU LOC101060620 /// MAPK8IP1 (11723275_at) / Fold change /veh LOC101060620 /// MAPK8IP1 (11723275_at) / RFU SPTSSB (11747773_x_at) / Fold change /veh SPTSSB (11747773_x_at) / RFU PRSS12 (11739890_at) / Fold change /veh PRSS12 (11739890_at) / RFU BIN1 (11741810_x_at) / Fold change /veh BIN1 (11741810_x_at) / RFU WNT11 (11732464_a_at) / Fold change /veh WNT11 (11732464_a_at) / RFU C10orf10 (11716521_a_at) / Fold change /veh C10orf10 (11716521_a_at) / RFU C5orf56 (11738089_at) / Fold change /veh C5orf56 (11738089_at) / RFU CYB561 (11721691_x_at) / Fold change /veh CYB561 (11721691_x_at) / RFU ANKRD19P (11752326_a_at) / Fold change /veh ANKRD19P (11752326_a_at) / RFU OR2T12 /// OR2T33 /// OR2T8 (11738714_s_at) / Fold change /veh OR2T12 /// OR2T33 /// OR2T8 (11738714_s_at) / RFU VCAN (11748164_a_at) / Fold change /veh VCAN (11748164_a_at) / RFU JSRP1 (11732532_at) / Fold change /veh JSRP1 (11732532_at) / RFU KRTAP10-11 (11738290_x_at) / Fold change /veh KRTAP10-11 (11738290_x_at) / RFU MYO3A (11730013_a_at) / Fold change /veh MYO3A (11730013_a_at) / RFU EBF3 (11725865_a_at) / Fold change /veh EBF3 (11725865_a_at) / RFU CAMK2N1 (11719241_x_at) / Fold change /veh CAMK2N1 (11719241_x_at) / RFU C5orf56 (11738088_a_at) / Fold change /veh C5orf56 (11738088_a_at) / RFU OLFML3 (11715873_a_at) / Fold change /veh OLFML3 (11715873_a_at) / RFU LOC100653217 /// NTM (11731650_a_at) / Fold change /veh LOC100653217 /// NTM (11731650_a_at) / RFU MAPK11 (11762145_a_at) / Fold change /veh MAPK11 (11762145_a_at) / RFU FIZ1 (11724087_x_at) / Fold change /veh FIZ1 (11724087_x_at) / RFU OASL (11726364_x_at) / Fold change /veh OASL (11726364_x_at) / RFU SOX15 (11748057_x_at) / Fold change /veh SOX15 (11748057_x_at) / RFU CD79A (11719716_a_at) / Fold change /veh CD79A (11719716_a_at) / RFU HIST1H1D (11736915_at) / Fold change /veh HIST1H1D (11736915_at) / RFU CASKIN2 (11723855_a_at) / Fold change /veh CASKIN2 (11723855_a_at) / RFU LOC730098 (11760151_x_at) / Fold change /veh LOC730098 (11760151_x_at) / RFU OR4N2 (11742367_at) / Fold change /veh OR4N2 (11742367_at) / RFU PRRT2 (11749266_a_at) / Fold change /veh PRRT2 (11749266_a_at) / RFU SNX32 (11753110_a_at) / Fold change /veh SNX32 (11753110_a_at) / RFU CDHR5 (11726645_a_at) / Fold change /veh CDHR5 (11726645_a_at) / RFU RCAN1 (11760418_a_at) / Fold change /veh RCAN1 (11760418_a_at) / RFU FAM167A (11723789_a_at) / Fold change /veh FAM167A (11723789_a_at) / RFU FAM26E (11764081_at) / Fold change /veh FAM26E (11764081_at) / RFU ISYNA1 (11749810_s_at) / Fold change /veh ISYNA1 (11749810_s_at) / RFU ACY1 (11761880_at) / Fold change /veh ACY1 (11761880_at) / RFU 11764098_at / Fold change /veh 11764098_at / RFU SAMD14 (11745864_x_at) / Fold change /veh SAMD14 (11745864_x_at) / RFU NPB (11741838_a_at) / Fold change /veh NPB (11741838_a_at) / RFU TMPRSS6 (11731388_a_at) / Fold change /veh TMPRSS6 (11731388_a_at) / RFU KRTAP10-2 (11738614_at) / Fold change /veh KRTAP10-2 (11738614_at) / RFU ARHGAP8 /// PRR5-ARHGAP8 (11727945_x_at) / Fold change /veh ARHGAP8 /// PRR5-ARHGAP8 (11727945_x_at) / RFU KRTAP5-7 /// NADSYN1 (11734609_at) / Fold change /veh KRTAP5-7 /// NADSYN1 (11734609_at) / RFU RASL12 (11751679_a_at) / Fold change /veh RASL12 (11751679_a_at) / RFU CDKN2B (11736163_a_at) / Fold change /veh CDKN2B (11736163_a_at) / RFU PRF1 (11729649_at) / Fold change /veh PRF1 (11729649_at) / RFU, ZNF638 /// ZNF638-IT1 / Fold change vs veh, ZNF638 /// ZNF638-IT1 / RFU, PANK3 / Fold change vs veh, PANK3 / RFU, SH3YL1 / Fold change vs veh, SH3YL1 / RFU, ZEB2 / Fold change vs veh, ZEB2 / RFU, NRIP1 / Fold change vs veh, NRIP1 / RFU, PTTG1IP / Fold change vs veh, PTTG1IP / RFU, CAPN2 / Fold change vs veh, CAPN2 / RFU, MED14 / Fold change vs veh, MED14 / RFU, SNORA58 / Fold change vs veh, SNORA58 / RFU, C1orf63 / Fold change vs veh, C1orf63 / RFU, LRRFIP1 / Fold change vs veh, LRRFIP1 / RFU, NDUFAF7 / Fold change vs veh, NDUFAF7 / RFU, SLC12A2 / Fold change vs veh, SLC12A2 / RFU, IBTK / Fold change vs veh, IBTK / RFU, ESF1 / Fold change vs veh, ESF1 / Fold change vs veh, TMEM50B / RFU, TAOK1 / Fold change vs veh, TAOK1 / RFU, ACBD3 / Fold change vs veh, ACBD3 / RFU, TMA16 / Fold change vs veh, TMA16 / RFU, RWDD3 / Fold change vs veh, RWDD3 / RFU, BCAT1 / Fold change vs veh, BCAT1 / RFU, EDEM3 / Fold change vs veh, EDEM3 / RFU, TMEM33 / Fold change vs veh, TMEM33 / RFU, WDR75 / Fold change vs veh, WDR75 / RFU, AHCTF1 / Fold change vs veh, AHCTF1 / RFU, TFRC / Fold change vs veh, TFRC / RFU, ZDHHC17 / Fold change vs veh, ZDHHC17 / RFU, NOM1 / Fold change vs veh, NOM1 / RFU, ARL8B / Fold change vs veh, ARL8B / RFU, ZBTB11 / Fold change vs veh, ZBTB11 / RFU, TAMM41 / Fold change vs veh, TAMM41 / RFU, KIAA1704 /// LOC100996395 / Fold change vs veh, KIAA1704 /// LOC100996395 / RFU, ING1 / Fold change vs veh, ING1 / RFU, TRMT61B / Fold change vs veh, TRMT61B / RFU, FUBP3 / Fold change vs veh, FUBP3 / RFU, TP53 / Fold change vs veh, TP53 / RFU, TNKS2 / Fold change vs veh, TNKS2 / RFU, ZFP14 / Fold change vs veh, ZFP14 / RFU, ACTR2 / Fold change vs veh, ACTR2 / RFU, PPP3R1 / Fold change vs veh, PPP3R1 / RFU, PIK3R1 / Fold change vs veh, PIK3R1 / RFU, HNRNPA1 / Fold change vs veh, HNRNPA1 / RFU, RNF170 / Fold change vs veh, RNF170 / RFU, ZNF28 / Fold change vs veh, ZNF28 / RFU, RNGTT / Fold change vs veh, RNGTT / RFU, OGT / Fold change vs veh, OGT / RFU, BRD1 / Fold change vs veh, BRD1 / RFU, MARS / Fold change vs veh, MARS / RFU, ZNF655 / Fold change vs veh, ZNF655 / RFU, FAHD1 / Fold change vs veh, FAHD1 / RFU, BDP1 / Fold change vs veh, BDP1 / RFU, LRRCC1 / Fold change vs veh, LRRCC1 / RFU, ARID1A / Fold change vs veh, ARID1A / RFU, ZNF146 / Fold change vs veh, ZNF146 / RFU, ZNF330 / Fold change vs veh, ZNF330 / RFU, GPN3 / Fold change vs veh, GPN3 / RFU, C9orf123 / Fold change vs veh, C9orf123 / RFU, N4BP2L2 / Fold change vs veh, N4BP2L2 / RFU, ARFIP1 / Fold change vs veh, ARFIP1 / RFU, FAM179B / Fold change vs veh, FAM179B / RFU, BCL10 / Fold change vs veh, BCL10 / RFU, UHRF1BP1L / Fold change vs veh, UHRF1BP1L / RFU, BET1 / Fold change vs veh, BET1 / RFU, CNOT2 / Fold change vs veh, CNOT2 / RFU, ZNF268 / Fold change vs veh, ZNF268 / Fold change vs veh, ZNF507 / RFU, DGCR2 / Fold change vs veh, DGCR2 / RFU, WDSUB1 / Fold change vs veh, WDSUB1 / Fold change vs veh, HSP90B1 /// MIR3652 / RFU, ADSS / Fold change vs veh, ADSS / RFU, GK / Fold change vs veh, GK / RFU, ZNF148 / Fold change vs veh, ZNF148 / RFU, TAF9 / Fold change vs veh, TAF9 / RFU, SLC1A5 / Fold change vs veh, SLC1A5 / RFU, SLMO2 / Fold change vs veh, SLMO2 / RFU, ABCC4 / Fold change vs veh, ABCC4 / RFU, LOC101060439 /// RAP1B / Fold change vs veh, LOC101060439 /// RAP1B / RFU, RFX7 / Fold change vs veh, RFX7 / RFU, GTPBP10 / Fold change vs veh, GTPBP10 / RFU, CNEP1R1 / Fold change vs veh, CNEP1R1 / RFU, BIVM-ERCC5 /// ERCC5 / Fold change vs veh, BIVM-ERCC5 /// ERCC5 / RFU, ILF3 / Fold change vs veh, ILF3 / RFU 11762660_at / Fold change /veh 11762660_at / RFU VCAN (11757783_s_at) / Fold change /veh VCAN (11757783_s_at) / RFU DDX43 (11728927_at) / Fold change /veh DDX43 (11728927_at) / RFU KRT8 (11758188_x_at) / Fold change /veh KRT8 (11758188_x_at) / RFU NKD1 (11759106_at) / Fold change /veh NKD1 (11759106_at) / RFU SRD5A1 (11742802_a_at) / Fold change /veh SRD5A1 (11742802_a_at) / RFU TPSAB1 /// TPSB2 (11721975_s_at) / Fold change /veh TPSAB1 /// TPSB2 (11721975_s_at) / RFU GSTM3 (11746129_a_at) / Fold change /veh GSTM3 (11746129_a_at) / RFU IL23R (11737362_x_at) / Fold change /veh IL23R (11737362_x_at) / RFU TMEM51 (11727254_a_at) / Fold change /veh TMEM51 (11727254_a_at) / RFU PIWIL2 (11732686_x_at) / Fold change /veh PIWIL2 (11732686_x_at) / RFU ORM1 (11744905_x_at) / Fold change /veh ORM1 (11744905_x_at) / RFU CCDC152 (11743942_at) / Fold change /veh CCDC152 (11743942_at) / RFU ECM1 (11717891_a_at) / Fold change /veh ECM1 (11717891_a_at) / RFU IL23R (11748794_a_at) / Fold change /veh IL23R (11748794_a_at) / RFU TNFAIP8L3 (11732012_x_at) / Fold change /veh TNFAIP8L3 (11732012_x_at) / RFU MBOAT4 (11741988_at) / Fold change /veh MBOAT4 (11741988_at) / RFU 11764193_at / Fold change /veh 11764193_at / RFU TMEM53 (11763286_at) / Fold change /veh TMEM53 (11763286_at) / RFU MAGEB2 (11727129_at) / Fold change /veh MAGEB2 (11727129_at) / RFU TMEM200A (11744735_a_at) / Fold change /veh TMEM200A (11744735_a_at) / RFU CCDC152 (11751479_a_at) / Fold change /veh CCDC152 (11751479_a_at) / RFU FAM211A (11726209_a_at) / Fold change /veh FAM211A (11726209_a_at) / RFU RGS16 (11746705_a_at) / Fold change /veh RGS16 (11746705_a_at) / RFU VCAN (11755009_s_at) / Fold change /veh VCAN (11755009_s_at) / RFU RHOB (11743442_s_at) / Fold change /veh RHOB (11743442_s_at) / RFU RGS16 (11720943_a_at) / Fold change /veh RGS16 (11720943_a_at) / RFU RGS16 (11720944_at) / Fold change /veh RGS16 (11720944_at) / RFU, VPS4B / Fold change vs veh, VPS4B / RFU, CREB1 / Fold change vs veh, CREB1 / RFU, DNAJC13 / Fold change vs veh, DNAJC13 / RFU, GNAQ / Fold change vs veh, GNAQ / RFU, CDK5R1 / Fold change vs veh, CDK5R1 / RFU, ZRANB3 / Fold change vs veh, ZRANB3 / RFU, CUL4A / Fold change vs veh, CUL4A / RFU, CCNY / Fold change vs veh, CCNY / RFU, UFL1 / Fold change vs veh, UFL1 / RFU, COG3 / Fold change vs veh, COG3 / RFU, DIAPH2 / Fold change vs veh, DIAPH2 / RFU, SKA2 / Fold change vs veh, SKA2 / RFU, AFF3 / Fold change vs veh, AFF3 / RFU, LMF1 / Fold change vs veh, LMF1 / RFU, IPO11 / Fold change vs veh, IPO11 / RFU, DFFB / Fold change vs veh, DFFB / RFU, FOXP1 / Fold change vs veh, FOXP1 / RFU, CARD8 / Fold change vs veh, CARD8 / RFU, STRN3 / Fold change vs veh, STRN3 / RFU, ADK / Fold change vs veh, ADK / RFU, RASSF2 / Fold change vs veh, RASSF2 / RFU, WIPF1 / Fold change vs veh, WIPF1 / RFU, LARP1B / Fold change vs veh, LARP1B / RFU, RASA1 / Fold change vs veh, RASA1 / RFU, RB1 / Fold change vs veh, RB1 / RFU, PPFIA1 / Fold change vs veh, PPFIA1 / RFU, MAT2A / Fold change vs veh, MAT2A / RFU, CCT5 / Fold change vs veh, CCT5 / RFU, WDR92 / Fold change vs veh, WDR92 / RFU, CUX1 / Fold change vs veh, CUX1 / RFU, TTC7A / Fold change vs veh, TTC7A / RFU, TMEM135 / Fold change vs veh, TMEM135 / RFU, DEPTOR / Fold change vs veh, DEPTOR / RFU, CPM / Fold change vs veh, CPM / RFU, DNAJB6 / Fold change vs veh, DNAJB6 / RFU, CACNA2D3 / Fold change vs veh, CACNA2D3 / RFU, DTX4 / Fold change vs veh, DTX4 / RFU, TFCP2 / Fold change vs veh, TFCP2 / RFU, GMCL1 /// GMCL1P1 / Fold change vs veh, GMCL1 /// GMCL1P1 / RFU, AEBP2 / Fold change vs veh, AEBP2 / RFU, SNHG1 /// SNORD22 /// SNORD25 /// SNORD26 /// SNORD27 /// SNORD28 /// SNORD29 /// SNORD31 / Fold change vs veh, SNHG1 /// SNORD22 /// SNORD25 /// SNORD26 /// SNORD27 /// SNORD28 /// SNORD29 /// SNORD31 / Fold change (Aza/veh), C12orf56 (ProbeSet 11735607_a_at) / Fold change (ACY-1035/veh), C12orf56 (ProbeSet 11735607_a_at) / Fold change (Aza/veh), FGFR1OP (ProbeSet 11751329_s_at) / Fold change (ACY-1035/veh), FGFR1OP (ProbeSet 11751329_s_at) / Fold change (Aza/veh), VPS36 (ProbeSet 11739960_a_at) / Fold change (ACY-1035/veh), VPS36 (ProbeSet 11739960_a_at) / RFU SYPL1 (11715823_x_at) / Fold change /veh SYPL1 (11715823_x_at) / RFU IGFBP7 (11715501_s_at) / Fold change /veh IGFBP7 (11715501_s_at) / RFU REEP3 (11722064_at) / Fold change /veh REEP3 (11722064_at) / RFU IGLL1 (11728026_x_at) / Fold change /veh IGLL1 (11728026_x_at): dose or concentration left out as unconfirmed
# Conditions: MV-4-11 cells, 48 hours
structure (smiles),measurement,value
Nc1ccc(-c2cccs2)cc1NC(=O)c1ccc2c(c1)cc(C1CC1)n2CCN1CCOCC1 [ACY-1035],Fold change /veh IGLL1 (11728026_x_at),0.28

# Source: PMC5218480 (PLoS ONE, 2017)
